{"source": "patent EP2181589A1", "about": "“Neurotoxic sterol glycosides” (Shaw, Christopher Ariel, priority 2008, dated 2010)", "key": {"[1]": {"tested_on": "Phosphorylated TDP-43 aggregates", "assay": "TDP-43 immunofluorescence", "assay_type": "in vivo, CD-1 mice", "design": "key to Phosphorylated TDP-43 aggregates: - = not present; + = present", "settings": "for Phosphorylated TDP-43 aggregates: SG-fed", "description": "(§1) The synthetic SG was mixed with finely ground Purina Chow mouse pellets (Mouse Diet™, Purina) to create the experimental pellets with a SG content of 1000 µg per pellet. Dry materials were blended with a sterile silicon spatula. For every 5 g of standard feed, 2.5 mL of doubly-distilled water (dd)H2O was added and the dough was kneaded and round up into pellets. A single sterol glucoside containing pellet was placed in the feeding tray each morning before the addition of regular mouse chow (ad libitum). All experimental pellets were entirely consumed by the mice each day. Control mice were fed standard mouse chow pellets of identical weight with no additives. SG feeding was conducted daily for 15 weeks and mice were behaviorally monitored until sacrifice at 35 weeks (time point 1) or 52 weeks (time point 2).\nTissue-mounted slides were processed for fluorescence microscopy as follows: Sections were rinsed in coplin jars for 45 minutes at room temperature (RT) in three changes of PBS. Sections were then incubated at RT for 30 minutes in a blocking permeabilization solution made of 5% normal goat serum (NGS), 5% normal rabbit serum (NRS) or 5% BlokHen II (Aves Labs, Inc., Tigard, OR), 0.05% Triton X-100 and PBS. Subsequently, the blocking solution was tipped off and the slides were rinsed in PBS for 2 minutes. Sections were then incubated overnight in a humidified chamber at 4°C with a PBS buffered solution that contained 1% NGS or 1% NRS, 1% bovine serum albumin (BSA) and one of the following primary antibodies: (a) rabbit anti-human/mouse ATF-3 (H-90) IgG (polyclonal, 1:500; Santa Cruz Biotechnology, Inc., Santa Cruz, CA), (b) anti-activated caspase-3 IgG (monoclonal, 1:250; Chemicon International, Temecula, CA) (see FIGURE 9), (c) goat antihuman/ mouse choline acetyl transferase (ChAT) IgG (polyclonal, 1:100; Chemicon International, Temecula, CA) (see FIGURE 6), (d) rabbit anti-mouse glial fibrillary acidic protein IgG (polyclonal, 1:250; GeneTex Inc., San Antonio, TX) (see FIGURE 7), (e) rabbit antihuman/ mouse ionized calcium binding adaptor molecule 1 (IBA-1) IgG (polyclonal, 1:500; Wako Pure Chemical Industries, Ltd, Richmond, VA), (f) mouse anti-human/mouse clone AT8 PHF-1 Tau (monoclonal, 1:200; Pierce Biotechnology Inc., Rockford, IL), (g) rabbit anti-human/mouse TAR DNA-binding protein 43 (TDP43) (1:100; ProteinTech Group Inc., Chicago, IL) (See FIGURE 14), (h) chicken anti-human/mouse β-tubulin 3 (TuJ1 antigen) (polyclonal, 1:100, Aves Labs, Inc., Tigard, OR), (i) rabbit anti-mouse tyrosine hydroxylase (polyclonal, 1:500, Chemicon International, Temecula, CA or polyclonal 1:1000, Affinity BioReagents, Golden, CO) (FIGURE 10), (j) rabbit anti human/mouse anti-pJunser73 IgG (polyclonal, 1:200; Chemicon International, Temecula, CA), (k) rabbit anti human/mouse anti-HSP-70 IgG (polyclonal, 1:200; Chemicon International, Temecula, CA), or (1) rabbit anti human/mouse anti-HSP-25 IgG (polyclonal, 1:100; Chemicon International, Temecula, CA). In each experiment, additional slides were incubated with the primary antibody and the secondary antibody omitted or with secondary antibody and primary antibody omitted to test for nonspecific staining. Where appropriate, positive control slides (Alzheimer's disease patient entorhinal cortex, obtained from Drs. Claudia Schwab and Patrick McGeer of the Kinsmen Laboratory, University of British Columbia, Vancouver, BC, Canada) were also processed as above for comparison. […]"}, "[2]": {"tested_on": "Motor Neurons per lumbar cord section", "assay": "Motor neuron counts, cresyl violet (Nissl) histology", "assay_type": "in vivo, CD-1 mice", "description": "as §1\nMice were sacrificed for histological analysis at 35 weeks (35.9-48.6 g) and 52 weeks (41.2-51.4 g) of age. Age-matched control mice from each time point were included for comparison. The mice were deeply anaesthetized in a chamber with 4% isoflurane and perfused intracardially with filtered PBS (pH 7.4) until the effluent was cleared of blood (2 minutes), followed by perfusion with cold (4°C) 4% paraformaldehyde (PFA) in 0.1 M phosphate buffer (pH 7.4) for 5 minutes (30 mL). The PBS and the PFA were delivered through separate sterile platinum-cured silicon tubing (Cole-Parmer Canada Inc., Montreal, Canada) and peristaltic pumps (MasterFlex peristaltic pump, Cole-Parmer Canada Inc., Montreal, Canada). The brains and spinal cords were dissected out and fixed overnight at 4°C and equilibrated in increasing concentrations of sucrose in phosphate-buffered saline, pH 7.4 (10, 20, and 25%) over a 3-day period. Complete equilibration of the tissues was taken as the moment the tissues sank to the bottom of the scintillation tubes filled with 25% sucrose. After equilibration, the spinal cord and brain specimens were set in molds (Tissue-tek Cryomold, Sakura Finetek, USA, Torrance, CA) with an optimum cutting temperature (OCT) gel-sucrose mixture frozen by immersion in an isopentane (BDH Laboratory Supplies, UK) bath on dry ice and stored at -80°C until processing.\nCryosectioning of tissue: Frozen, coronal sections (spinal cord: 20 µm, brain: 30 µm) were cut with a Hacker-Bright cryostat (Hacker Instruments and Industries Inc., Winnsboro, SC) and mounted on charged glass slides (Superfrost Plus; Fisher Scientific, Pittsburgh, PA) so that adjacent CNS sections on each slide represented regions 100 µm and 150 µm apart for spinal cord and brain, respectively ((Tabata, Wilson et al. 2008)). The slides were stored at -80°C until histological processing. To ensure CNS sections were matched between animals, anatomical landmarks were verified using a mouse brain atlas (Paxinos and Franklin 2001).\nHistology and quantification of motor neurons: Spinal cord and brain sections from each animal were stained for Nissl body substance. At room temperature (RT), sections were rinsed in a graded ethanol series (95%: 15 min; 70%: 1 min; 50%: 1 min) to rehydrate and remove lipids and fixation chemicals from the tissue. The tissue were then rinsed for 2 min in two exchanges of distilled water, stained with twice-filtered cresyl violet stain (1.25 g cresyl violet acetate, 0.75 mL glacial acetic acid to 250 mL distilled water), rinsed in distilled water (1 minute), and then dehydrated (50% ethanol: 1 minute; 1% glacial acetic acid-70% ethanol: 2 minutes; 95% ethanol: 2 minutes; 95% ethanol: 3 dips; 100% ethanol: 1 minute) and cleared in xylene. The slides were then cover-slipped in Entellen mountant (Merck, Darmstadt, Germany). The tissue mounted slides were selected with a randomized start and sampled starting from the lumbar 2 region to the 6th. […]"}, "[3]": {"settings": "SG-fed vs control, time-point 1, 35 wk"}, "[4]": {"settings": "SG-fed vs control, time-point 2, 52 wk"}, "[5]": {"settings": "SG-group over time, 35 to 52 wk"}}, "note": "Where “and” joins values, the source holds several entries; their conditions need not be identical. Equal values may be shown once. Marks after values point to notes of the source that are not given here."}
{"smiles": "CCC(C=CC(C)C1CCC2C3CC=C4CC(OC5OC(CO)C(O)C(O)C5O)CCC4(C)C3CCC12C)C(C)C", "note": "(stereo not shown) [SG]", "values": [{"measurement": "pathologic phosphorylated TDP-43-containing aggregates in the lumbar spinal cord", "setting": "[1]; SG-fed animals", "value": "increased"}, {"measurement": "translocation of TDP-43", "setting": "[1]; SG-fed animals at 35 weeks", "value": "No abnormal translocation"}, {"measurement": "Phosphorylated TDP-43 aggregates / TDP-43 pathology, animals affected", "setting": "[1]; SG-fed group, time-point 2, 52 wk", "value": "Two of eight and 2/8"}, {"measurement": "Phosphorylated TDP-43 aggregates", "setting": "[1]; time-point 1, 35 wk", "value": "-"}, {"measurement": "Phosphorylated TDP-43 aggregates", "setting": "[1]; time-point 2, 52 wk", "value": "+"}, {"measurement": "Chromatolytic α-MN", "setting": "[2]; [3]", "value": "Chromatolytic α-MN (ns)"}, {"measurement": "Healthy α-MN", "setting": "[2]; [3]", "value": "Healthy α-MN (ns)"}, {"measurement": "Pyknotic α-MN", "setting": "[2]; [3]", "value": "Pyknotic α-MN (ns)"}, {"measurement": "Total γ-MN", "setting": "[2]; [3]", "value": "Total γ-MN (ns)"}, {"measurement": "Chromatolytic α-MN", "setting": "[2]; [4]", "value": "Chromatolytic α-MN (ns)"}, {"measurement": "Pyknotic α-MN", "setting": "[2]; [4]", "value": "Pyknotic α-MN (ns)"}, {"measurement": "Total γ-MN", "setting": "[2]; [4]", "value": "Total γ-MN (ns)"}, {"measurement": "Total α-MN", "setting": "[2]; SG-fed vs control, time-point 2, 52 wk, table cell prints no unit", "value": "Total α-MN: -47*"}, {"measurement": "Chromatolytic α-MN", "setting": "[2]; [5]", "value": "(control group & SG-group independently over time) (ns)"}, {"measurement": "Pyknotic α-MN", "setting": "[2]; [5]", "value": "(control group and SG-group independently over time) (ns)"}, {"measurement": "Total γ-MN", "setting": "[2]; [5]", "value": "(control group and SG-group independently over time) (ns)"}]}
